# According to PMC4748415, “Impact of different cell penetrating peptides on the efficacy of antisense therapeutics for targeting intracellular pathogens” (Scientific Reports, 2016):
# “And” between values parts separate entries of the source, which are not always exact repeats. Equal values may be shown once. “Also recorded” adds a separate entry of the source. Read-outs that look alike come from different tables or passages of the source. Peptide text beside a SMILES is read from it.
# Legend:
# [1] = test system: clinical isolates of L. monocytogenes; type: cell-based, Listeria monocytogenes
# Experimental: (§1) The MICs of conjugated PNAs, free PNA, CPPs and untreated control against L. monocytogenes were determined using the broth microdilution method according to the Clinical and Laboratory Standards Institute (CLSI) guidelines with the following modifications. Briefly, low binding clear microcentrifuge tubes (USA scientific, Inc. Ocala, FL) were used in triplicates for each reaction instead of traditional 96-well plates. […] After a 16 hour incubation period (of test agent with bacteria), the number of viable bacteria was enumerated by serial dilution and counting on TSA plates. The MICs were repeated at least twice.
# [2] = test system: L. monocytogenes J0161 in infected C. elegans; assay: C. elegans infection model; conditions: 18 hours treatment; for Log CFUs/worm: 10 worms in triplicates; for Log CFUs reduction: versus water
# Experimental: To test the efficacy of PNA in vivo we used Listeria-infected C. elegans. The temperature-sensitive sterile mutant strain C. elegans AU37 [sek-1(km4); glp-4(bn2) I] was used for this study. This strain is sterile at room temperature and can lay eggs only at 15 °C. Furthermore, mutation in the sek-1 gene of the p38 mitogen-activated protein kinase pathway (p38 MAPK pathway), makes this particular C. elegans strain more susceptible to Listeria infection[49][56]. Initially, the pathogenicity of three strains of Listeria (F4244, J0161 and ATCC19111) was tested in C. elegans as described before[24] to determine the most virulent strain to use for this study. […] Briefly, adult worms were grown for 5 days, at 15 °C (temperature that permits worms to lay eggs) on NGM agar plates seeded with a lawn of E. coli OP50. The eggs were harvested by bleaching[57] and maintained for 24 hours at room temperature with gentle agitation for hatching. Hatched larvae were transferred to a new NGM plate seeded with E. coli OP50 and were kept at room temperature for five days until worms reached the adult stage of growth. Adult worms were collected and washed three times with M9 media in a 1:10 ratio to remove E. coli before transfer to LB agar plates seeded with a lawn of L. monocytogenes J0161 for infection. After eight hours of infection, worms were collected and washed with M9 buffer five times before incubation with PNAs. Worms were transferred to low-binding microcentrifuge tubes (10 worms per tube). […] After treatment for 18 hours, worms were washed five times with M9 buffer. […] Samples were serially diluted and plated onto TSA plates containing 5 μg/ml nalidixic acid to select for Listeria.
# L. monocytogenes F4244 [3] = assay: Concentration-dependent bacterial log reduction in pure culture; type: cell-based, Listeria monocytogenes; conditions: for Log CFU/ml: pure culture F4244, 16 hour incubation; for Log CFU reduction: relative to control, pure culture F4244
# Experimental: as §1
# L. monocytogenes F4244 [4] = assay: Time kill assay; type: cell-based, Listeria monocytogenes; conditions: 12 hours; for bactericidal or bacteriostatic activity: L. monocytogenes, time kill at 32 μM
# Experimental: L. monocytogenes F4244 in logarithmic growth phase was diluted to ~10^5 CFU/ml and incubated with 32 μM of the five PNAs (in triplicates) at 37 °C for 12 hours. Samples were collected every two hours, serially diluted, and plated onto TSA plates. Plates were then incubated wat 37 °C for 24 hours before viable CFUs were determined.
# Samples were collected every 20 minutes and processed as above.
# [5] = test system: L. monocytogenes F4244 inside infected J774A.1 cells; type: cell-based; conditions: 4 hours; for Log CFU/ml: intracellular F4244 in J774A.1; for Log CFU reduction: intracellular F4244 in J774A.1, versus control
# [6] = concentration required to inhibit 50% of L. monocytogenes isolates (six isolates)
# [7] = strain ATCC 13932, broth microdilution in low binding tubes, triplicates, 16 hour incubation
# [8] = strain ATCC 19111, broth microdilution in low binding tubes, triplicates, 16 hour incubation
# [9] = strain ATCC 19112, broth microdilution in low binding tubes, triplicates, 16 hour incubation
# [10] = strain ATCC 19114, broth microdilution in low binding tubes, triplicates, 16 hour incubation
# [11] = strain F4244, broth microdilution in low binding tubes, triplicates, 16 hour incubation, no turbidity
# [12] = strain J0161, broth microdilution in low binding tubes, triplicates, 16 hour incubation
compound,measurement,setting,value
"NCCCC[C@H](NC(=O)[C@H](Cc1ccccc1)NC(=O)[C@H](Cc1ccccc1)NC(=O)[C@H](CCCCN)NC(=O)[C@H](Cc1ccccc1)NC(=O)[C@H](Cc1ccccc1)NC(=O)[C@H](CCCCN)NC(=O)[C@H](Cc1ccccc1)NC(=O)[C@H](Cc1ccccc1)NC(=O)[C@@H](N)CCCCN)C(N)=O [KFF, reference compound] (H-KFFKFFKFFK-NH2)",MIC50,"[1]; clinical isolates of, 16 h",64 µM
"RFRRFRRFRRFRXB [(RFR)4XB, cell penetrating peptide (RFR)4XB, reference compound]",MIC50,[1]; [6],>128 µM
same,MIC,[1]; [7],>128 µM
same,MIC,[1]; [8],32 µM
same,MIC,[1]; [9],>128 µM
same,MIC,[1]; [10],128 µM
same,MIC,[1]; [11],>128 µM
same,MIC,"[1]; strain F4244, broth microdilution in low binding tubes, triplicates, 16 hour incubation, no turbidity, listed as RFR",no growth inhibition
same,MIC,[1]; [12],>128 µM
"N=C(N)NCCC[C@H](NC(=O)CN)C(=O)N[C@@H](CCCCN)C(=O)N[C@@H](CCCCN)C(=O)N[C@@H](CCCCN)C(=O)N[C@@H](CCCNC(=N)N)C(=O)N[C@@H](CCCNC(=N)N)C(=O)N[C@@H](CCC(N)=O)C(=O)N[C@@H](CCCNC(=N)N)C(=O)N[C@@H](CCCNC(=N)N)C(=O)N[C@@H](CCCNC(=N)N)C(=O)N[C@@H](Cc1ccc(O)cc1)C(=O)N[C@@H](CCCCN)C(=O)O [TAT, reference compound] (H-GRKKKRRQRRRYK-OH)",MIC,"[1]; clinical isolates of, 16 h",>128 µM
same,MIC50,"[1]; clinical isolates of, 16 h",>128 µM
"CNC(C)C1CCC(N)C(OC2C(N)CC(N)C(OC3OCC(C)(O)C(NC)C3O)C2O)O1 (stereo not drawn) [Gentamicin, gentamicin, reference compound]",Log CFUs/worm,[2]; 16 µM,3.52±0.55 Log CFUs/worm
same,Log CFUs reduction,[2]; 16 µM,0.63 Log CFUs
same,Log CFUs/worm,[2]; 32 µM,2.18±0.6 Log CFUs/worm
same,Log CFUs reduction,[2]; 32 µM,2.2 Log CFUs
KFFKFFKFFK-O-cgatcattcaaa-NH2 [PKFF],MIC50,[1]; [6],32 µM
same,MIC,[1]; [7],32 µM
same,MIC,[1]; [8],32 µM
same,MIC,[1]; [9],32 µM
same,MIC,[1]; [10],2 µM
same,MIC,[1]; [11],32 µM
same,MIC,[1]; [12],32 µM
same,Log CFU/ml,L. monocytogenes F4244 [3]; 1 µM PNA,9.40±0.08 Log CFU/ml
same,Log CFU reduction,L. monocytogenes F4244 [3]; 1 µM PNA,-0.009 Log CFU
same,Log CFU/ml,L. monocytogenes F4244 [3]; 2 µM PNA,9.35±0.05 Log CFU/ml
same,Log CFU reduction,L. monocytogenes F4244 [3]; 2 µM PNA,0.041 Log CFU
same,Log CFU/ml,L. monocytogenes F4244 [3]; 4 µM PNA,9.26±0.07 Log CFU/ml
same,Log CFU reduction,L. monocytogenes F4244 [3]; 4 µM PNA,0.129 Log CFU
same,Log CFU/ml,L. monocytogenes F4244 [3]; 8 µM PNA,8.93±0.35 Log CFU/ml
same,Log CFU reduction,L. monocytogenes F4244 [3]; 8 µM PNA,0.46 Log CFU
same,Log CFU/ml,L. monocytogenes F4244 [3]; 16 µM PNA,8.40±0.16 Log CFU/ml
same,Log CFU reduction,L. monocytogenes F4244 [3]; 16 µM PNA,0.98 Log CFU
same,Log CFU/ml,L. monocytogenes F4244 [3]; 32 µM PNA,6.63±0.59 Log CFU/ml
same,Log CFU reduction,L. monocytogenes F4244 [3]; 32 µM PNA,2.78 Log CFU
same,bactericidal or bacteriostatic activity,L. monocytogenes F4244 [4],bacteriostatic effect
same,Log CFU/ml,[5]; 2 μM,6.77 ± 0.03 Log CFU/ml
same,Log CFU reduction,[5]; 2 μM,−0.031 Log CFU
same,Log CFU/ml,[5]; 4 μM,6.76 ± 0.08 Log CFU/ml
same,Log CFU reduction,[5]; 4 μM,−0.029 Log CFU
same,Log CFU/ml,[5]; 8 μM,6.12 ± 0.32 Log CFU/ml
same,Log CFU reduction,[5]; 8 μM,0.6 Log CFU
same,Log CFUs/worm,[2]; 16 µM,3.43±0.2 Log CFUs/worm
same,Log CFUs reduction,[2]; 16 µM,0.71 Log CFUs
same,Log CFUs/worm,[2]; 32 µM,3.35±0.25 Log CFUs/worm
same,Log CFUs reduction,[2]; 32 µM,1.03 Log CFUs
RQIKIWFQNRRMKWKK-O-cgatcattcaaa-NH2 [PANT],MIC50,[1]; [6],32 µM
same,MIC,[1]; [7],32 µM
same,MIC,[1]; [8],32 µM
same,MIC,[1]; [9],32 µM
same,MIC,[1]; [10],1 µM
same,MIC,[1]; [11],16 µM
same,MIC,[1]; [12],32 µM
same,Log CFU/ml,L. monocytogenes F4244 [3]; 1 µM PNA,9.30±0.06 Log CFU/ml
same,Log CFU reduction,L. monocytogenes F4244 [3]; 1 µM PNA,0.095 Log CFU
same,Log CFU/ml,L. monocytogenes F4244 [3]; 2 µM PNA,9.27±0.21 Log CFU/ml
same,Log CFU reduction,L. monocytogenes F4244 [3]; 2 µM PNA,0.119 Log CFU
same,Log CFU/ml,L. monocytogenes F4244 [3]; 4 µM PNA,9.14±0.05 Log CFU/ml
same,Log CFU reduction,L. monocytogenes F4244 [3]; 4 µM PNA,0.25 Log CFU
same,Log CFU/ml,L. monocytogenes F4244 [3]; 8 µM PNA,8.09±0.95 Log CFU/ml
same,Log CFU reduction,L. monocytogenes F4244 [3]; 8 µM PNA,1.3 Log CFU and 1.30 Log CFU
same,Log CFU/ml,L. monocytogenes F4244 [3]; 16 µM PNA,6.73±0.48 Log CFU/ml
same,Log CFU reduction,L. monocytogenes F4244 [3]; 16 µM PNA,2.66 Log CFU
same,Log CFU/ml,L. monocytogenes F4244 [3]; 32 µM PNA,bacterial clearance; also recorded: Cleared
same,Log CFU reduction,L. monocytogenes F4244 [3]; 32 µM PNA,9.39 Log CFU
same,time to complete eradication of Listeria,"L. monocytogenes F4244 [4]; 32 μM PNA, 37 °C, samples every 2 hours, ~10^5 CFU/ml",10 h
same,bactericidal or bacteriostatic activity,L. monocytogenes F4244 [4],bactericidal activity
same,Log CFU/ml,[5]; 2 μM,6.82 ± 0.02 Log CFU/ml
same,Log CFU reduction,[5]; 2 μM,−0.09 Log CFU
same,Log CFU/ml,[5]; 4 μM,6.67 ± 0.05 Log CFU/ml
same,Log CFU reduction,[5]; 4 μM,0.06 Log CFU
same,Log CFU/ml,[5]; 8 μM,4.65 ± 0.34 Log CFU/ml
same,Log CFU reduction,[5]; 8 μM,2.07 Log CFU
same,Log CFUs/worm,[2]; 16 µM,3.88±0.15 Log CFUs/worm
same,Log CFUs reduction,[2]; 16 µM,0.27 Log CFUs
same,Log CFUs/worm,[2]; 32 µM,2.49±0.48 Log CFUs/worm
same,Log CFUs reduction,[2]; 32 µM,1.89 Log CFUs
"RXRRXRRXRRXRXB [(RXR)4XB, cell penetrating peptide (RXR)4XB, reference compound]",MIC50,[1]; [6],>128 µM
same,MIC,[1]; [7],>128 µM
same,MIC,[1]; [8],>128 µM
same,MIC,[1]; [9],>128 µM
same,MIC,[1]; [10],>128 µM
same,MIC,[1]; [11],>128 µM
same,MIC,"[1]; strain F4244, broth microdilution in low binding tubes, triplicates, 16 hour incubation, no turbidity, listed as RXR",no growth inhibition
same,MIC,[1]; [12],>128 µM
